Data on 14 molecules can be found in ChEMBL document CHEMBL1275295, “Synthesis of some p-toluenesulfonyl-hydrazinothiazoles and hydrazino-bis-thiazoles and their anticancer activity” (Eur J Med Chem, 2010).

Each structure is given as a SMILES string.

The subject of test [1] is DU-145. The experiment in a line: Inhibition of proliferation of human DU145 cells after 72 hrs by XTT assay. Type of test: functional, cell-based. To be noted: DU-145, 72 h. For orientation: Formazan colour is commonly taken as a measure of viable cells.
Test [2] deals with HepG2. The experiment in a line: Inhibition of proliferation of human HepG2 cells at 44.2 uM after 72 hrs by XTT assay. Format: functional. Conditions: HepG2, 72 h.
Test [3] relates to DU-145. The experiment in a line: Inhibition of proliferation of human DU145 cells at 102 uM after 72 hrs by XTT assay. Type of test: functional. Conditions: DU-145, 72 h.
Test [4] has as its system HepG2. As to the kind of experiment: Inhibition of proliferation of human HepG2 cells after 72 hrs by XTT assay. Type of test: functional, cell-based. Conditions: HepG2, 72 h.
Test [5] concerns HepG2. The experiment in a line: Inhibition of proliferation of human HepG2 cells at 72.5 uM after 72 hrs by XTT assay. Format: functional. Conditions: HepG2, 72 h.
Test [6] relates to DU-145. As to the kind of experiment: Inhibition of proliferation of human DU145 cells at 44.2 uM after 72 hrs by XTT assay. Type of test: functional. Conditions: DU-145, 72 h.
Test [7] relates to HepG2. The experiment in a line: Inhibition of proliferation of human HepG2 cells at 36.2 uM after 72 hrs by XTT assay. Type of test: functional. Conditions: HepG2, 72 h.
Test [8] concerns DU-145. The experiment in a line: Inhibition of proliferation of human DU145 cells at 36.2 uM after 72 hrs by XTT assay. Type of test: functional. Conditions: DU-145, 72 h.
Test [9] relates to HepG2. The experiment in a line: Inhibition of proliferation of human HepG2 cells at 51 uM after 72 hrs by XTT assay. Format: functional. Conditions: HepG2, 72 h.
Test [10] relates to DU-145. As to the kind of experiment: Inhibition of proliferation of human DU145 cells at 38.5 uM after 72 hrs by XTT assay. Conditions: DU-145, 72 h. Type of test: functional.
Test [11] deals with HepG2. As to the kind of experiment: Inhibition of proliferation of human HepG2 cells at 35.2 uM after 72 hrs by XTT assay. Format: functional. Conditions: HepG2, 72 h.
The test system of test [12] is DU-145. The experiment in a line: Inhibition of proliferation of human DU145 cells at 35.2 uM after 72 hrs by XTT assay. Format: functional. To be noted: DU-145, 72 h.
Test [13] has as its system DU-145. The experiment in a line: Inhibition of proliferation of human DU145 cells at 34.1 uM after 72 hrs by XTT assay. To be noted: DU-145, 72 h. Format: functional.
The test system of test [14] is HepG2. The experiment in a line: Inhibition of proliferation of human HepG2 cells at 34.1 uM after 72 hrs by XTT assay. Conditions: HepG2, 72 h. Type of test: functional.

Consider `Cc1ccc(S(=O)(=O)NNC(N)=S)cc1`, for which the IC50 in [1] and in [4] was 8.98 µM in each case. Besides, 44.2 µM produced 100% inhibition in test [2]. For the same molecule, at 102 µM the inhibition in [3] was 100%. Further, the inhibition at 72.5 µM in test [5] was determined as 100%.
On to `Cc1ccc(S(=O)(=O)NNc2nc(C)cs2)cc1`, for which the half-maximal inhibitory concentration (IC50) in test [1] is 6.96 µM; in [4] it was below 5.65 µM. Also, at 44.2 µM the inhibition in test [6] was 100%. Besides, the inhibition at 36.2 µM in [7] stood at 100%.
Consider `O=C(NNc1nc(CCl)cs1)c1csc(-c2ccccc2)n1`, for which the values for the IC50 in test [1] and in test [4] were 49.2 µM and 11.2 µM, respectively.
Consider `Cc1ccc(S(=O)(=O)NNc2nc(-c3ccccc3)cs2)cc1`, for which the half-maximal inhibitory concentration (IC50) in [1] is 9.07 µM; in test [4], 9.16 µM. Besides, the inhibition at 36.2 µM in [8] turned out to be 100%. Also, at 51 µM the inhibition in test [9] was 100%.
Take `CC(=O)c1sc(NNS(=O)(=O)c2ccc(C)cc2)nc1C`: in test [10], the inhibition at 38.5 µM was found to be 100%. Moreover, the half-maximal inhibitory concentration (IC50) in [1] amounted to 9.84 µM; in test [4], 8.77 µM.
In the case of `CCOC(=O)c1sc(NNS(=O)(=O)c2ccc(C)cc2)nc1C`, the half-inhibitory concentration (IC50) was 4.68 µM in [1] and below 4.51 µM in test [4]. For the same molecule, the inhibition at 35.2 µM in test [11] and in [12] was 100% each time.
For the molecule `CC(=O)N(c1nc(C)cs1)N(C(C)=O)S(=O)(=O)c1ccc(C)cc1`, the inhibition at 34.1 µM in test [13] and in test [14] was 100% in each case. In addition, the IC50 in [1] was 7.63 µM; in [4], 7.36 µM.
With `CC(=O)N(c1nc(CCl)cs1)N(C(C)=O)S(=O)(=O)c1ccc(C)cc1`, the IC50 in test [1] and in [4] was above 62.3 µM each time.
On to `CC(=O)N(c1nc(-c2ccccc2)cs1)N(C(C)=O)S(=O)(=O)c1ccc(C)cc1`, for which the IC50 in [1] and in test [4] was above 58.3 µM in each case.
Regarding `CC(=O)c1sc(N(C(C)=O)N(C(C)=O)S(=O)(=O)c2ccc(C)cc2)nc1C`, the IC50 in test [1] turned out to be 53.5 µM; in test [4], 57.4 µM.
For the molecule `CCOC(=O)c1sc(N(C(C)=O)N(C(C)=O)S(=O)(=O)c2ccc(C)cc2)nc1C`, the half-maximal inhibitory concentration (IC50) in test [1] and in [4] was above 57 µM throughout.
Take `CCOC(=O)Cc1csc(N(C(C)=O)N(C(C)=O)S(=O)(=O)c2ccc(C)cc2)n1`: the IC50 in test [1] was 46.4 µM; in [4], 11 µM.
For `CCOC(=O)Cc1csc(N(NC(=O)c2csc(-c3ccccc3)n2)C(C)=O)n1` the same measures were above 58.1 µM and above 58.1 µM.
For `COc1cccc2c1C(=O)c1c(O)c3c(c(O)c1C2=O)C[C@@](O)(C(=O)CO)C[C@@H]3O[C@H]1C[C@H](N)[C@H](O)[C@H](C)O1` [DOXORUBICIN] the same measures were below 2.94 µM and below 2.94 µM.

For orientation: IC50 means the midpoint of a concentration-inhibition curve. The term inhibition denotes the change of the read-out against control, counted positive when it falls. Read a high inhibition as a strong effect.
